# Literature values in US6316468A, “Phenylindole derivatives as 5-HT2A receptor antagonists” (Merck Sharp & Dohme Ltd., priority 1997, dated 2001).
# Assays:
# [1] = system: apomorphine-induced stereotyped behaviour; conditions: animal models, preclinical studies
# [2] = system: human dopamine D2 receptor
# [3] = schizophrenic patients, multicentre, placebo-controlled study
structure (smiles),measurement,setting,value
"COc1cccc(C(O)C2CCN(CCc3ccc(F)cc3)CC2)c1OC (single isomer, unassigned) [MDL-100,907, (+)-α-(2,3-dimethoxyphenyl)-1-[2-(4-fluorophenyl)-ethyl]-4-piperidinemethanol]",block of apomorphine-induced stereotyped behaviour,[1],failed to block apomorphine-induced stereotyped behaviour
same,antagonism of human 5-HT2A receptors,human 5-HT2A receptors,potent antagonist
same,activity at the human dopamine D2 receptor,[2],essentially devoid of activity
same,efficacy for antipsychotic potential,[3],demonstrated efficacy
